Assay results as given in patent US20250263370A1 (Tay Therapeutics Limited, priority 2022, published 2025).
Several values for one entry are separate records, joined by “and”; a condition that tells them apart may be missing. Equal entries are not always repeated. Entries after “also recorded” stand apart in the source; their conditions may differ.

Tested on: collagen-induced arthritis
Test: Collagen-induced arthritis (CIA) model in rats: body weight, paw volume, clinical scores, clinical observations; for Average detailed clinical score, left hind limb: key of the grades not given here; for Average detailed clinical score, right hind limb: key of the grades not given here; for Detailed Clinical Scores, left forelimb: key of the grades not given here; for Detailed Clinical Scores, left hind limb: key of the grades not given here; for Detailed Clinical Scores, right forelimb: key of the grades not given here; for Detailed Clinical Scores, right hind limb: key of the grades not given here; for Detailed Clinical Scores, score: key of the grades not given here; for Mean overall clinical score ± SD: key of the grades not given here; for Overall clinical score: key of the grades not given here
Settings: for Mean animal paw volume ± SD: group mean; for Detailed Clinical Scores, left forelimb / Detailed Clinical Scores, left hind limb / Detailed Clinical Scores, right forelimb / Detailed Clinical Scores, right hind limb / Detailed Clinical Scores, score: individual animals ID 1-8; for Overall clinical score: individual animals #1-8
Experimental: Prior to be randomly placed in treatment groups, animals were weighed, and paw volume was measured. Once randomly assigned to treatment groups, on Day 0, animals in groups 2-9 were immunized by subcutaneous injection at the base of the tail.
The immunization comprised 100 μL of the CFA+Collagen emulsion (prepared according to the method in Experimental Method A). Animals in group one received no immunization. Seven days after the first injection, animals in groups 2-9 received a booster immunization comprising 200 μL of the IFA+Collagen emulsion (prepared according to the method in Experimental Method A).
Starting on Day 0, animals in group 1 and 2 were administered daily doses of the vehicle per os (P.O.) for 21 days. […] The twice daily doses for animals in groups 4-9 were 8 hours apart (e.g., the first dose at 8:00 AM and the second dose at 4:00 PM).
Body weight of all animals was recorded daily for the 21-day period. Blind clinical scores on all four limbs were conducted for all animals in the study. Animals were assessed prior to receiving their first dose of the compound or control, and scores for each limb were combined to a total daily score for each animal. Clinical score assessments were performed on Day 0, 6, 12, 13, 14, 15, 18, 19, and 21 (for a total of 9 daily scores).
Paw volume was recorded for each animal on Day 0, 6, 12, 13, 14, 15, 18, 19, and 21 (for a total of 9 measurements). To measure paw volume, animals were gently held with one hand while the hind paw was placed into a plethysmometer with the other hand. Lipid displacement by the paw was recorded and used to represent paw volume.
All data measured and recorded was analyzed using SPSS 16.0 software. Groups were compared using one-way ANOVA and significance was set at p<0.05.

`C[C@@H]1C[C@H]2[C@@H]3CCC4=CC(=O)C=C[C@]4(C)[C@@]3(F)[C@@H](O)C[C@]2(C)[C@@]1(O)C(=O)CO` [dexamethasone] was tested, and the “Average animal paw volume percent change” value (CIA rats, Day 0, left hind paw (L)) was 0.00%, the “Animal paw volume Day 0 L” value (CIA rats, Day 0, left paw, individual animals) was 1.35 mL and 1.31 mL and 1.39 mL and 1.33 mL and 1.30 mL (2×) and 1.34 mL and 1.36 mL and the “Average animal paw volume percent change” value (CIA rats, Day 0, right hind paw (R)) was 0.00%. For the same compound, the “Animal paw volume Day 0 R” value (CIA rats, Day 0, right paw, individual animals) was 1.34 mL and 1.30 mL (2×) and 1.38 mL and 1.35 mL and 1.29 mL and 1.36 mL and 1.37 mL, the “Average animal paw volume percent change” value (CIA rats, Day 6, left hind paw (L)) was −3.37% and the “Animal paw volume Day 6 L” value (CIA rats, Day 6, left paw, individual animals) was 1.31 mL and 1.29 mL (3×) and 1.34 mL and 1.26 mL (2×) and 1.28 mL. For the same compound, the “Average animal paw volume percent change” value (CIA rats, Day 6, right hind paw (R)) was −3.26%, the “Animal paw volume Day 6 R” value (CIA rats, Day 6, right paw, individual animals) was 1.30 mL (3×) and 1.28 mL (2×) and 1.34 mL and 1.27 mL and 1.26 mL and the “Average animal paw volume percent change” value (CIA rats, Day 12, left hind paw (L)) was −4.94%. For the same compound, the “Animal paw volume Day 12 L” value (CIA rats, Day 12, left paw, individual animals) was 1.21 mL (2×) and 1.37 mL and 1.28 mL (2×) and 1.22 mL and 1.30 mL and 1.29 mL, the “Average animal paw volume percent change” value (CIA rats, Day 12, right hind paw (R)) was −5.21% and the “Animal paw volume Day 12 R” value (CIA rats, Day 12, right paw, individual animals) was 1.25 mL (2×) and 1.26 mL (2×) and 1.37 mL and 1.27 mL and 1.18 mL and 1.29 mL. For the same compound, the “Average animal paw volume percent change” value (CIA rats, Day 13, left hind paw (L)) was −3.57%, the “Animal paw volume Day 13 L” value (CIA rats, Day 13, left paw, individual animals) was 1.23 mL and 1.24 mL and 1.40 mL and 1.29 mL (2×) and 1.30 mL and 1.25 mL and 1.31 mL and the “Average animal paw volume percent change” value (CIA rats, Day 13, right hind paw (R)) was −4.08%. For the same compound, the “Animal paw volume Day 13 R” value (CIA rats, Day 13, right paw, individual animals) was 1.26 mL and 1.27 mL and 1.38 mL and 1.25 mL and 1.28 mL and 1.21 mL and 1.31 mL and 1.29 mL, the “Average animal paw volume percent change” value (CIA rats, Day 14, left hind paw (L)) was −4.60% and the “Animal paw volume Day 14 L” value (CIA rats, Day 14, left paw, individual animals) was 1.24 mL (3×) and 1.39 mL and 1.27 mL and 1.28 mL and 1.29 mL and 1.25 mL. For the same compound, the “Average animal paw volume percent change” value (CIA rats, Day 14, right hind paw (R)) was −5.07%, the “Animal paw volume Day 14 R” value (CIA rats, Day 14, right paw, individual animals) was 1.26 mL (4×) and 1.38 mL and 1.23 mL and 1.20 mL and 1.29 mL and the “Average animal paw volume percent change” value (CIA rats, Day 15, left hind paw (L)) was −5.47%. For the same compound, the “Animal paw volume Day 15 L” value (CIA rats, Day 15, left paw, individual animals) was 1.23 mL and 1.21 mL and 1.36 mL and 1.28 mL and 1.26 mL and 1.16 mL and 1.33 mL and 1.27 mL, the “Average animal paw volume percent change” value (CIA rats, Day 15, right hind paw (R)) was −5.41% and the “Animal paw volume Day 15 R” value (CIA rats, Day 15, right paw, individual animals) was 1.25 mL and 1.24 mL and 1.36 mL and 1.27 mL (2×) and 1.14 mL and 1.32 mL and 1.26 mL. For the same compound, the “Average animal paw volume percent change” value (CIA rats, Day 18, left hind paw (L)) was −3.01%, the “Animal paw volume Day 18 L” value (CIA rats, Day 18, left paw, individual animals) was 1.28 mL and 1.22 mL and 1.45 mL and 1.31 mL and 1.29 mL and 1.18 mL and 1.34 mL and 1.30 mL and the “Average animal paw volume percent change” value (CIA rats, Day 18, right hind paw (R)) was −3.14%. For the same compound, the “Animal paw volume Day 18 R” value (CIA rats, Day 18, right paw, individual animals) was 1.28 mL and 1.44 mL and 1.31 mL and 1.29 mL (2×) and 1.34 mL, the “Average animal paw volume percent change” value (CIA rats, Day 19, left hind paw (L)) was −3.33% and the “Animal paw volume Day 19 L” value (CIA rats, Day 19, left paw, individual animals) was 1.28 mL (2×) and 1.22 mL and 1.44 mL and 1.30 mL (2×) and 1.19 mL and 1.33 mL. For the same compound, the “Average animal paw volume percent change” value (CIA rats, Day 19, right hind paw (R)) was −3.57%, the “Animal paw volume Day 19 R” value (CIA rats, Day 19, right paw, individual animals) was 1.27 mL (2×) and 1.22 mL and 1.44 mL and 1.31 mL and 1.18 mL and 1.32 mL and 1.30 mL and the “Average animal paw volume percent change” value (CIA rats, Day 21, left hind paw (L)) was −3.56%. For the same compound, the “Animal paw volume Day 21 L” value (CIA rats, Day 21, left paw, individual animals) was 1.26 mL and 1.22 mL and 1.43 mL and 1.31 mL (2×) and 1.30 mL (2×) and 1.18 mL, the “Average animal paw volume percent change” value (CIA rats, Day 21, right hind paw (R)) was −3.51% and the “Animal paw volume Day 21 R” value (CIA rats, Day 21, right paw, individual animals) was 1.26 mL and 1.22 mL and 1.43 mL and 1.31 mL and 1.30 mL (2×) and 1.18 mL and 1.32 mL. The “signs of disease over the 21-day period” value (CIA rats, daily P.O. for 21 days) was “No animals in group 3 (dexamethasone) ever received a score indicating that they exhibited symptoms of disease; also recorded: never exhibited any signs of disease”, the “effect on hind paw volume” value (CIA rats, daily P.O. for 21 days, listed as Dexamethasone) was “effective at controlling paw volume; also recorded: effective at preventing any change in paw volume throughout the entire 21-day period” and the “animals showing signs of disease” value (CIA rats, daily P.O., day 12) was “No animals”. The “Mean animal paw volume ± SD” value (Day 0, L paw) was 1.33 mL, the “Animal paw volume percent change” value (Day 0, L paw, individual animals) was 0.00% and the “Mean animal paw volume ± SD” value (Day 0, R paw) was 1.33 mL. For the same compound, the “Animal paw volume percent change” value (Day 0, R paw, individual animals) was 0.00%, the “Average detailed clinical score, left forelimb” value (Day 0, CIA rats) was 0.00 and the “Average detailed clinical score, left hind limb” value (Day 0, CIA rats) was 0.00. The “Average detailed clinical score, right forelimb” value (Day 0, CIA rats) was 0.00, the “Average detailed clinical score, right hind limb” value (Day 0, CIA rats) was 0.00 and the “Average detailed clinical score, score” value (Day 0, CIA rats) was 0.00. For the same compound, the “Mean overall clinical score ± SD” value (Day 0, CIA rats) was 0 ± 0, the “Detailed Clinical Scores, left forelimb” value (Day 0, CIA rats) was 0 and the “Detailed Clinical Scores, left hind limb” value (Day 0, CIA rats) was 0. For the same compound, the “Detailed Clinical Scores, right forelimb” value (Day 0, CIA rats) was 0, the “Detailed Clinical Scores, right hind limb” value (Day 0, CIA rats) was 0 and the “Detailed Clinical Scores, score” value (Day 0, CIA rats) was 0. The Overall clinical score (Day 0, CIA rats) was 0, the “Mean animal paw volume ± SD” value (Day 6, L paw) was 1.29 mL and the “Animal paw volume percent change” value (Day 6, L paw, individual animals) was −2.97% and −1.53% and −3.61% and −3.02% and −3.09% and −3.08% and −4.12% and −5.51%. For the same compound, the “Mean animal paw volume ± SD” value (Day 6, R paw) was 1.29 mL, the “Animal paw volume percent change” value (Day 6, R paw, individual animals) was −3.00% and −1.16% and −2.91% and −3.72% and −1.56% and −2.70% and −5.90% and −5.13% and the “Average detailed clinical score, left forelimb” value (Day 6, CIA rats) was 0.00. For the same compound, the “Average detailed clinical score, left hind limb” value (Day 6, CIA rats) was 0.00, the “Average detailed clinical score, right forelimb” value (Day 6, CIA rats) was 0.00 and the “Average detailed clinical score, right hind limb” value (Day 6, CIA rats) was 0.00. For the same compound, the “Average detailed clinical score, score” value (Day 6, CIA rats) was 0.00, the “Mean overall clinical score ± SD” value (Day 6, CIA rats) was 0 ± 0 and the “Detailed Clinical Scores, left forelimb” value (Day 6, CIA rats) was 0. For the same compound, the “Detailed Clinical Scores, left hind limb” value (Day 6, CIA rats) was 0, the “Detailed Clinical Scores, right forelimb” value (Day 6, CIA rats) was 0 and the “Detailed Clinical Scores, right hind limb” value (Day 6, CIA rats) was 0. For the same compound, the “Detailed Clinical Scores, score” value (Day 6, CIA rats) was 0, the Overall clinical score (Day 6, CIA rats) was 0 and the “Mean animal paw volume ± SD” value (Day 12, L paw) was 1.27 mL. The “Animal paw volume percent change” value (Day 12, L paw, individual animals) was −10.41% and −7.66% and −1.44% and −3.40% and −1.54% and −6.54% and −3.00% and −5.51%, the “Mean animal paw volume ± SD” value (Day 12, R paw) was 1.26 mL and the “Animal paw volume percent change” value (Day 12, R paw, individual animals) was −6.74% and −3.09% and −0.73% and −7.43% and −1.56% and −9.27% and −7.01% and −5.86%. The “Average detailed clinical score, left forelimb” value (Day 12, CIA rats) was 0.00, the “Average detailed clinical score, left hind limb” value (Day 12, CIA rats) was 0.00 and the “Average detailed clinical score, right forelimb” value (Day 12, CIA rats) was 0.00. The “Average detailed clinical score, right hind limb” value (Day 12, CIA rats) was 0.00, the “Average detailed clinical score, score” value (Day 12, CIA rats) was 0.00 and the “Mean overall clinical score ± SD” value (Day 12, CIA rats) was 0 ± 0. For the same compound, the “Detailed Clinical Scores, left forelimb” value (Day 12, CIA rats) was 0, the “Detailed Clinical Scores, left hind limb” value (Day 12, CIA rats) was 0 and the “Detailed Clinical Scores, right forelimb” value (Day 12, CIA rats) was 0. The “Detailed Clinical Scores, right hind limb” value (Day 12, CIA rats) was 0, the “Detailed Clinical Scores, score” value (Day 12, CIA rats) was 0 and the Overall clinical score (Day 12, CIA rats) was 0. For the same compound, the “Mean animal paw volume ± SD” value (Day 13, L paw) was 1.28 mL, the “Animal paw volume percent change” value (Day 13, L paw, individual animals) was −8.92% and −5.36% and 0.72% and −3.02% and 0.00% and −4.23% and −2.25% and −5.51% and the “Mean animal paw volume ± SD” value (Day 13, R paw) was 1.28 mL. The “Animal paw volume percent change” value (Day 13, R paw, individual animals) was −5.99% and −2.32% and 0.36% and −7.43% and −0.78% and −6.95% and −3.69% and −5.86%.
